What was measured:
Fibroblast = experiment: Incucyte cell viability with human fibroblast; type: toxicity, cell-based; settings: 10 µM, compound concentration 10 uM
U2OS = experiment: Incucyte cell viability with U2OS; type: toxicity, cell-based; settings: human, 10 µM, compound concentration 10 uM
[1] = 6 h, replicate number 1, timepoint 6 hours
[2] = 12 h, replicate number 1, timepoint 12 hours
[3] = 18 h, replicate number 1, timepoint 18 hours
[4] = 24 h, replicate number 1, timepoint 24 hours
[5] = 0 h, replicate number 1, timepoint 0 hours
[6] = 12 h, replicate number 2, timepoint 12 hours
[7] = 0 h, replicate number 2, timepoint 0 hours
[8] = 24 h, replicate number 2, timepoint 24 hours
[9] = 6 h, replicate number 2, timepoint 6 hours
[10] = 18 h, replicate number 2, timepoint 18 hours
Further: filed as whole numbers so only -1 and 0 and 1 occur.

| Structure (SMILES) | Growth Rate (Fibroblast; [1]) | Growth Rate (Fibroblast; [2]) | Growth Rate (Fibroblast; [3]) | Growth Rate (Fibroblast; [4]) | Growth Rate (U2OS; [5]) | Growth Rate (U2OS; [1]) | Growth Rate (U2OS; [2]) | Growth Rate (U2OS; [3]) | Growth Rate (U2OS; [4]) | Growth Rate (Fibroblast; [5]) | Growth Rate (U2OS; [6]) | Growth Rate (U2OS; [7]) | Growth Rate (U2OS; [8]) | Growth Rate (Fibroblast; [7]) | Growth Rate (U2OS; [9]) | Growth Rate (U2OS; [10]) | Growth Rate (Fibroblast; [10]) | Growth Rate (Fibroblast; [8]) | Growth Rate (Fibroblast; [9]) | Growth Rate (Fibroblast; [6]) |
| --- | --- | --- | --- | --- | --- | --- | --- | --- | --- | --- | --- | --- | --- | --- | --- | --- | --- | --- | --- | --- |
| C[C@@]1(C(=O)Nc2ccc(F)nc2)CCCN1c1nc(Nc2cc(C3CC3)n[nH]2)c2cccn2n1 [BMS-754807] | 0 | 0 | 0 | 0 | 0 | 0 | 0 | 0 | 0 |  |  |  |  |  |  |  |  |  |  |  |
| CN(C)CC#Cc1ccc(OCCCc2sc(N3CCc4cccc(C(=O)Nc5nc6ccccc6s5)c4C3)nc2C(=O)O)c(F)c1 [A-1155463] | 0 | 0 | 0 | 0 | 0 | 0 | 0 | 0 | 0 | 0 | 1 |  |  |  |  |  |  |  |  |  |
| O=C(NCCN1CCOCC1)c1ccc2c(c1)C(=O)c1ccc(Nc3ccc(F)c(NC(=O)c4ccccc4)c3)cc1CC2 [FS-694] | 1 | 0 | 0 | 0 |  |  | 1 | 0 | 0 | 0 |  | 0 | 1 |  |  |  |  |  |  |  |
| c1cn2cc(-c3ccc4cn[nH]c4c3)nc(Nc3ccc(N4CCOCC4)cc3)c2n1 [ENTOSPLETINIB] | 0 | 0 | 0 | 0 |  |  | 1 | 1 | 0 |  |  | 1 |  | 0 | 1 | 0 |  |  |  |  |
| Cn1cncc1[C@@](O)(COc1ccc(C#N)cc1-c1ccc(OC(F)(F)F)cc1)c1ccc(C#N)cc1 [A-108] | 0 | 0 | 0 | 0 | 0 | 0 | 1 | 0 | 0 | 1 |  |  |  |  |  |  |  |  |  |  |
| CN(C)C(=O)N[C@H]1CC[C@H](CCN2CCN(c3cccc(Cl)c3Cl)CC2)CC1.Cl [CARIPRAZINE HYDROCHLORIDE] | 0 | 0 | 1 | 1 | 1 | 0 | 1 | 1 | 1 | 0 |  |  |  |  |  |  | 0 | 0 |  |  |
| CN1C(=O)c2sccc2N(C)c2nc(Nc3ccc(S(N)(=O)=O)cc3)ncc21 | 1 | 0 | 0 | 0 |  | 0 | 0 | 0 | 0 | 0 |  | 0 |  |  |  |  |  | 1 | 0 | 1 |
| CCN(CC)CCCCNc1ncc2cc(-c3cc(OC)cc(OC)c3)c(NC(=O)NC(C)(C)C)nc2n1 [PD-173074] | 1 | 0 | 0 | 0 | 1 | 0 | 0 | 0 | 0 | 1 | 1 | 0 |  | 0 | 1 | 1 |  |  |  |  |
| O=C1NCN(c2ccccc2)C12CCN(CCCOc1ccc(F)cc1)CC2 [SPIRAMIDE] | 0 | 0 | 0 | 0 | 0 |  | 0 | 0 | 0 | 1 |  |  |  |  | 1 |  |  |  |  |  |
| COc1cc2nccc(Oc3ccc(NC(=O)Nc4cc(C)on4)c(Cl)c3)c2cc1OC.O | 0 | 0 | 0 | 0 | 1 | 0 | 0 | 0 | 0 | 0 |  | 0 |  |  |  |  |  |  | 1 |  |
| CNc1nc(NCc2ccc(NS(C)(=O)=O)cc2Cl)cc(-c2ccccn2)n1 | 0 | 0 | 0 | 0 | 0 | 0 | 0 | 0 | 0 |  |  |  |  |  |  |  |  |  |  |  |
| C=CC(=O)Nc1cc2c(Nc3ccc(F)c(Cl)c3)ncnc2cc1OCCCN1CCOCC1.Cl.Cl [CANERTINIB DIHYDROCHLORIDE] | 0 | 0 | 0 | 0 |  | 0 | 0 | 0 | 0 | 1 |  |  |  |  |  |  |  |  |  |  |
| COc1ccc(Oc2cc(NCCC(F)(F)F)c3ncc(-c4ccc(C(=O)NC5CC5)c(C)c4)n3n2)c(F)c1F [BAY-1217389] | 0 | 0 | 0 | 0 | 0 | 0 | 0 | 0 | 0 |  | 1 |  |  | 1 |  | 1 |  |  |  |  |
| OC1(c2ccc(Cl)cc2)CCN(Cc2c[nH]c3ccccc23)CC1 | 0 | 0 | 0 | 0 |  |  | 0 | 0 | 0 | 0 |  |  |  |  | 0 |  |  |  |  |  |
| C=CC(=O)Nc1ccc2ncnc(Nc3ccc(OCc4cccc(F)c4)c(Cl)c3)c2c1.Cc1ccc(S(=O)(=O)O)cc1 | 0 | 0 | 0 | 0 |  |  | 1 | 0 | 0 | 0 |  | 1 |  |  | 0 |  |  |  |  |  |
| CN1CCN(c2ccc(OC(F)(F)F)c(Nc3ncc4c(n3)-c3c(c(C(N)=O)nn3CCO)CC4)c2)CC1 [ONVANSERTIB] | 0 | 0 | 0 | 0 | 0 | 0 | 0 | 0 | 0 |  |  |  |  |  |  |  |  |  |  |  |
| COc1cccc([C@@H](C)NCCCc2ccccc2Cl)c1.Cl [TECALCET HYDROCHLORIDE] |  | 1 | 1 | 1 | 0 |  | 1 | 1 | 1 | 0 |  |  | 0 |  | 0 |  | 0 | 0 | 0 | 0 |
| CN1CCCC(n2nc(Cc3ccc(Cl)cc3)c3ccccc3c2=O)CC1.Cl (centres undefined) [AZELASTINE HYDROCHLORIDE] |  | 1 | 1 | 0 | 0 |  |  | 1 | 1 | 0 | 1 |  |  |  | 0 |  | 0 |  | 0 | 0 |
| Cc1nc(-c2ccc(-c3ccc(C(=O)N4CCc5cc6c(cc54)C4(CCN(C)CC4)CO6)cc3)c(C)c2)no1 [SB-224289] |  | 0 | 0 | 0 |  |  |  | 1 | 1 | 0 | 1 | 0 | 0 |  | 1 |  |  |  | 0 |  |
| C[C@@H](NCCCc1cccc(C(F)(F)F)c1)c1cccc2ccccc12.Cl [CINACALCET HYDROCHLORIDE] | 0 | 0 | 0 | 0 |  |  | 1 | 0 | 0 | 1 | 0 |  |  |  | 0 |  |  |  |  |  |
| Cc1nc(Nc2n[nH]c3c2CN(C(=O)N[C@H](CN(C)C)c2ccccc2)C3(C)C)c2sccc2n1 [PF-03758309] | 0 | 0 | 0 | 0 | 1 | 0 | 0 | 0 | 0 |  |  |  |  | 0 |  |  |  |  |  |  |
| CN(C)c1ncnc(-c2ccc3nc(Nc4cc(CN5CCN(C(=O)CC(F)(F)F)CC5)ccn4)[nH]c3c2)c1Cl [BAY-440] | 1 | 1 | 1 | 1 |  | 0 | 0 | 0 | 0 | 0 | 1 | 0 | 1 |  | 1 | 1 | 0 | 0 |  |  |
| Cc1cc(C)cc(-c2cnc3cc(Cl)c(-c4cccc(O)c4)cc3c2OCCCN)c1 | 0 | 0 | 0 | 0 |  | 0 | 0 | 0 | 0 | 0 |  | 0 |  |  |  |  |  |  |  |  |
| CCn1c(=O)c(-c2ccc(Cl)cc2Cl)cc2cnc(Nc3ccc(N4CCNCC4)c(F)c3)nc21 | 0 | 0 | 0 | 0 | 0 | 0 | 0 | 0 | 0 | 0 |  |  |  |  |  |  |  |  |  |  |
| CN(C)C(=O)/C(C#N)=C/c1ccc(-c2nc3cnc4[nH]ccc4c3n2C2CCCCC2)o1 | 1 | 0 | 0 | 0 | 0 | 0 | 0 | 0 | 0 |  | 1 |  | 1 | 0 | 1 | 1 | 1 |  |  |  |
| Cn1c(-c2csc(C3CCN(CC4=NC5N=CC=CC5N4)CC3)n2)nc2ccccc21 (centres undefined) [BAY-070] | 0 | 1 | 1 | 1 | 0 | 0 | 1 | 0 | 1 |  |  |  | 0 | 1 |  | 1 |  |  |  |  |
| Nc1c(C(=O)NCc2ccc(C(=O)NCCCC3CCCCC3)cc2)cnn1-c1ccccc1 [SR-318] | 1 | 1 | 0 | 0 |  | 1 | 1 | 1 | 1 | 0 |  | 0 |  | 1 |  |  |  |  | 0 | 0 |
